In US20110028445A1, “Urea derivatives of benzomorphanes and related scaffolds, medicaments containing such compounds and their use” (BOEHRINGER INGELHEIM INTERNATIONAL GMBH, priority 2008, published 2011):

Biological target: T1, 11β-HSD1 (Homo sapiens, UniProt P28845)
T1 construct: detecting cortisol generated from cortisterone by human liver microsomes; from tissue; host or cells: human liver microsomes
Assay: In vitro inhibition of 11β-HSD1, HTRF detection of cortisol generated by human liver microsomes
Format: biochemical
Settings: compound concentration 1 μM, 100% indicates no inhibition, zero or below zero indicates complete inhibition, cortisone 80 nM, 1 hour at 37° C., read-out: % CTL at 1 μM
Procedure: Briefly, compounds were incubated for 1 hour at 37° C. in Tris buffer (20 mM tris, 5 mM EDTA, pH 6.0) containing NADPH (200 μM) and cortisone (80 nM). Cortisol generated in the reaction is then detected with a competitive immunoassay, involving two HTRF conjugates: cortisol linked to XL665 and anti-cortisol antibody labeled with Europium cryptate. The incubation period for detection reaction was typically 2 hours. The amount of cortisol is determined by reading the time-resolved fluorescence of the wells (Ex 320/75 nm; Em 615/8.5 nm and 665/7.5 nm). The ratio of the two emission signals is then calculated (Em665*10000/Em615). […] Each assay also contained a calibration curve with cortisol to transform the fluorescent data into cortisol concentrations. Percent inhibition of each compound was determined relative to the carbenoxolone signal and IC50 curves were generated.
The % CTL values of some example compounds at a concentration of 1 μM are provided in the following Table 2 wherein 100% indicates no inhibition and a value of zero or below zero indicates complete inhibition. The measurement of % CTL is described hereinbefore.

T1 sequence (P28845 whole entry): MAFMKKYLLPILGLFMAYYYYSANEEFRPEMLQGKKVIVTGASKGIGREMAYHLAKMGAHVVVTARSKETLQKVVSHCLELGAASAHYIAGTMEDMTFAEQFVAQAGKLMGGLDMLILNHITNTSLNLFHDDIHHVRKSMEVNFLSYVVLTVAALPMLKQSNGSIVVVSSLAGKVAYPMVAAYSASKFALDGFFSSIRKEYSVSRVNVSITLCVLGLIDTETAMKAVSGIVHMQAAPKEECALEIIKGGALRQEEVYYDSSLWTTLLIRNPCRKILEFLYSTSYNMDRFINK

Structure (SMILES)	remaining activity at 1 µM
CC1(C)[C@H]2Cc3c(O)cccc3[C@]1(C)CCN2C(=O)N1CCCCC1 [Example 1, [(2R,6S)-10-Hydroxy-6,11,11-trimethyl-1,2,5,6-tetrahydro-4H-2,6-methano-benzo[d]azocin-3-yl]-piperidin-1-yl-methanone]	-46%
CC1(C)[C@H]2Cc3c(O)cccc3[C@]1(C)CCN2C(=O)N1CCCC1 [Example 2]	18%
CC1(C)[C@H]2Cc3c(O)cccc3[C@]1(C)CCN2C(=O)N1CCOCC1 [Example 3]	84%
CC1(C)[C@H]2Cc3c(O)cccc3[C@]1(C)CCN2C(=O)N1CCc2ccsc2C1 [Example 7, (4,7-Dihydro-5H-thieno[2,3-c]pyridin-6-yl)-[(2R,6S)-10-hydroxy-6,11,11-trimethyl-1,2,5,6-tetrahydro-4H-2,6-methano-benzo[d]azocin-3-yl]-methanone]	-32%
CC1(C)[C@H]2Cc3c(O)cccc3[C@]1(C)CCN2C(=O)N1CCc2sccc2C1 [Example 8]	-27%
CC1CCN(C(=O)N2CC[C@@]3(C)c4cccc(O)c4C[C@@H]2C3(C)C)CC1 [Example 9]	-14%
CC1(C)[C@H]2Cc3c(O)cccc3[C@]1(C)CCN2C(=O)N1Cc2ccccc2C1 [Example 10]	53%
CC1(C)[C@H]2Cc3c(O)cccc3[C@]1(C)CCN2C(=O)N1CCc2ccccc2C1 [Example 11]	18%
COC1CCN(C(=O)N2CC[C@@]3(C)c4cccc(O)c4C[C@@H]2C3(C)C)CC1 [Example 12]	-39%
CC1(C)[C@H]2Cc3c(O)cccc3[C@]1(C)CCN2C(=O)N1CCC(O)CC1 [Example 13]	-53%
CC1(C)[C@H]2Cc3c(O)cccc3[C@]1(C)CCN2C(=O)N1C2CCC1CC(O)C2 (stereo partly drawn) [Example 14]	-46%
CC1(C)[C@H]2Cc3c(O)cccc3[C@]1(C)CCN2C(=O)N1CCc2nc[nH]c2C1 [Example 15]	14%
CC1(C)[C@H]2Cc3c(O)cccc3[C@]1(C)CCN2C(=O)N1CCCc2ccccc21 [Example 16]	-41%
CC1(C)[C@H]2Cc3c(O)cccc3[C@]1(C)CCN2C(=O)N1[C@@H]2CC[C@H]1C[C@@H](c1ccc(F)cc1)C2 [Example 17]	-43%
CC1(C)[C@H]2Cc3c(O)cccc3[C@]1(C)CCN2C(=O)N1CCc2ccccc21 [Example 18]	-8%
CC1(C)[C@H]2Cc3ccccc3[C@]1(C)CCN2C(=O)N1CCCCC1 [Example 19]	-47%
C[C@@H]1[C@H]2Cc3ccc(O)cc3[C@]1(C)CCN2C(=O)N1CCCCC1 [Example 20]	-39%
C[C@@H]1[C@H]2Cc3ccc(C#N)cc3[C@]1(C)CCN2C(=O)N1CCCCC1 [Example 21]	-28%
CC1(C)[C@H]2Cc3c(O)cccc3[C@]1(C)CCN2C(=O)N1CCC(CO)C1 (stereo partly drawn) [Example 22]	-4%
CC1(C)[C@H]2Cc3c(O)cccc3[C@]1(C)CCN2C(=O)N1CCCC(O)C1 (stereo partly drawn) [Example 23]	-9%
CC1(C)[C@H]2Cc3c(O)cccc3[C@]1(C)CCN2C(=O)N1CC(O)C1 [Example 24]	70%
CC1(C)[C@H]2Cc3c(O)cccc3[C@]1(C)CCN2C(=O)N1CCC(CO)CC1 [Example 25]	-43%
CC1(C)[C@H]2Cc3c(O)cccc3[C@]1(C)CCN2C(=O)N1CCCC(O)CC1 (stereo partly drawn) [Example 26]	-41%

Structure (SMILES)	remaining activity at 1 µM
CC1(O)CCN(C(=O)N2CC[C@@]3(C)c4cccc(O)c4C[C@@H]2C3(C)C)CC1 [Example 27]	-41%
CC1(C)[C@H]2Cc3c(O)cccc3[C@]1(C)CCN2C(=O)N1CCCC1CO (stereo partly drawn) [Example 28]	36%
CC1(C)[C@H]2Cc3c(O)cccc3[C@]1(C)CCN2C(=O)N1CCC(O)C1 (stereo partly drawn) [Example 29]	30%
CC1(C)[C@H]2Cc3c(O)cccc3[C@]1(C)CCN2C(=O)N1CCCC(CO)C1 (stereo partly drawn) [Example 30]	-54%
COc1cccc2c1C[C@H]1N(C(=O)N3CCCCC3)CC[C@]2(C)C1(C)C [Example 31, [(2R,6S)-10-Methoxy-6,11,11-trimethyl-1,2,5,6-tetrahydro-4H-2,6-methano-benzo[d]azocin-3-yl]-piperidin-1-yl-methanone]	-6%
CC1(C)[C@H]2Cc3c(OCc4ccccc4)cccc3[C@]1(C)CCN2C(=O)N1CCCCC1 [Example 32]	82%
CC1(C)[C@H]2Cc3c(OCC#N)cccc3[C@]1(C)CCN2C(=O)N1CCCCC1 [Example 33]	23%
CC1(C)[C@H]2Cc3c(ccc(C#N)c3O)[C@]1(C)CCN2C(=O)N1CCCCC1 [Example 35, (2R,6S)-10-Hydroxy-6,11,11-trimethyl-3-(piperidine-1-carbonyl)-1,2,3,4,5,6-hexahydro-2,6-methano-benzo[d]azocine-9-carbonitrile]	-30%
CC1(C)[C@H]2Cc3cc(C#N)ccc3[C@]1(C)CCN2C(=O)N1CCCCC1 [Example 36, (2R,6S)-6,11,11-Trimethyl-3-(piperidine-1-carbonyl)-1,2,3,4,5,6-hexahydro-2,6-methano-benzo[d]azocine-9-carbonitrile]	-31%
CC1(C)[C@H]2Cc3c(O)cccc3[C@]1(C)CCN2C(=O)N1CCC(O)(CO)CC1 [Example 37]	-7%
CC1(C)[C@H]2Cc3c(O)cccc3[C@]1(C)CCN2C(=O)N1C2CCCC1CC(O)C2 (stereo partly drawn) [Example 40]	-17%
CC1(C)[C@H]2Cc3c(O)cccc3[C@]1(C)CCN2C(=O)N1CCCC(C(N)=O)C1 (stereo partly drawn) [Example 41]	-56%
CC1(C)[C@H]2Cc3c(O)cccc3[C@]1(C)CCN2C(=O)N1CCCC(C(=O)Nc2ccccc2)C1 (stereo partly drawn) [Example 42]	32%
CC1(C)[C@H]2Cc3c(O)cccc3[C@]1(C)CCN2C(=O)N1CCCC2(CCCNC2=O)C1 (stereo partly drawn) [Example 43]	-45%
CC1(C)[C@H]2Cc3c(O)cccc3[C@]1(C)CCN2C(=O)N1CCc2cc(O)ccc2C1 [Example 44]	-4%
CC1(C)[C@H]2Cc3c(O)cccc3[C@]1(C)CCN2C(=O)N1CCc2cccc(O)c2C1 [Example 46, (8-Hydroxy-3,4-dihydro-1H-isoquinolin-2-yl)-[(2R,6S)-10-hydroxy-6,11,11-trimethyl-1,2,5,6-tetrahydro-4H-2,6-methano-benzo[d]azocin-3-yl]-methanone]	-10%
CC1(C)[C@H]2Cc3c(O)cccc3[C@]1(C)CCN2C(=O)N1CCn2cnnc2C1 [Example 47]	94%
Cc1ccc2c(c1)CCCN2C(=O)N1CC[C@@]2(C)c3cccc(O)c3C[C@@H]1C2(C)C [Example 48]	-18%
CC1(C)[C@H]2Cc3c(O)cccc3[C@]1(C)CCN2C(=O)N1CCCc2cc(NC(=O)C(F)(F)F)ccc21 [Example 49]	23%
CC1(C)[C@H]2Cc3c(O)cccc3[C@]1(C)CCN2C(=O)N1CCC(C(N)=O)CC1 [Example 50]	-20%
CC(C)(C)C1COc2ccccc2N1C(=O)N1CC[C@@]2(C)c3cccc(O)c3C[C@@H]1C2(C)C (stereo partly drawn) [Example 51]	94%
CC1(C)[C@H]2Cc3c(O)cccc3[C@]1(C)CCN2C(=O)N1CCCC(c2nc3ccccc3[nH]2)C1 (stereo partly drawn) [Example 52]	27%
